{"source": "patent US12655116B2", "about": "“Substituted isophthalic acid diamides” (Bayer Aktiengesellschaft, priority 2020, dated 2026)", "key": {"[1]": {"system": "AVEFA", "assay": "Post-emergence herbicidal action against AVEFA", "format": "in vivo, Avena fatua", "settings": "20 g/ha, visual assessment about 3 weeks after treatment, 100% = plants have died, 0% = like control plants", "procedure,_shortened": "(§1)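 Greenhouse plants in sandy loam were sprayed at the one-leaf stage, 2 to 3 weeks after sowing, with WP or EC formulations as aqueous suspension or emulsion (600 to 800 l/ha water, 0.2% wetting agent). Visual damage was scored about 3 weeks later versus untreated controls, 0% = like control, 100% = dead.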"}, "[2]": {"system": "ABUTH", "assay": "Pre-emergence herbicidal action against ABUTH", "format": "in vivo, Abutilon theophrasti", "procedure,_shortened": "(§2)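 Pre-emergence soil-surface spray of formulated compound (WP or EC; 600 to 800 l/ha; 0.2% wetting agent) over seeds sown in sandy loam. After 3 weeks under greenhouse conditions, damage is estimated visually in percent against untreated plants.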"}, "[3]": {"system": "ECHCG", "assay": "Post-emergence herbicidal action against ECHCG", "format": "in vivo, Echinochloa crus-galli", "procedure,_shortened": "as §1"}, "[4]": {"system": "SETVI", "assay": "Post-emergence herbicidal action against SETVI", "format": "in vivo, Setaria viridis", "procedure,_shortened": "as §1"}, "[5]": {"system": "VIOTR", "assay": "Pre-emergence herbicidal action against VIOTR", "format": "in vivo, Viola tricolor", "procedure,_shortened": "as §2"}, "[6]": {"system": "ALOMY", "assay": "Pre-emergence herbicidal action against ALOMY", "format": "in vivo, Alopecurus myosuroides", "settings": "pre-emergence", "procedure,_shortened": "as §2"}, "[7]": {"system": "POLCO", "assay": "Pre-emergence herbicidal action against POLCO", "format": "in vivo, Polygonum convolvulus", "settings": "Fallopia convolvulus, 504 h, dosage 80 g/ha", "procedure,_shortened": "as §2"}, "[8]": {"system": "AMARE", "assay": "Pre-emergence herbicidal action against AMARE", "format": "in vivo, Amaranthus retroflexus", "procedure,_shortened": "as §2"}, "[9]": {"system": "VERPE", "assay": "Post-emergence herbicidal action against VERPE", "format": "in vivo, Veronica persica", "settings": "20 g/ha", "procedure,_shortened": "as §1"}, "[10]": {"system": "VIOTR", "assay": "Post-emergence herbicidal action against VIOTR", "format": "in vivo, Viola tricolor", "procedure,_shortened": "as §1"}, "[11]": {"system": "AVEFA", "assay": "Pre-emergence herbicidal action against AVEFA", "format": "in vivo, Avena fatua", "procedure,_shortened": "as §2"}, "[12]": {"system": "ABUTH", "assay": "Post-emergence herbicidal action against ABUTH", "format": "in vivo, Abutilon theophrasti", "settings": "visual assessment about 3 weeks after treatment vs untreated controls", "procedure,_shortened": "as §1"}, "[13]": {"system": "MATIN", "assay": "Pre-emergence herbicidal action against MATIN", "format": "in vivo, Matricaria inodora", "procedure,_shortened": "as §2"}, "[14]": {"system": "SETVI", "assay": "Pre-emergence herbicidal action against SETVI", "format": "in vivo, Setaria viridis", "procedure,_shortened": "as §2"}, "[15]": {"system": "ALOMY", "assay": "Post-emergence herbicidal action against ALOMY", "format": "in vivo, Alopecurus myosuroides", "settings": "dosage 20 g/ha, visual assessment about 3 weeks after treatment vs untreated controls", "procedure,_shortened": "as §1"}, "[16]": {"system": "ECHCG", "assay": "Pre-emergence herbicidal action against ECHCG", "format": "in vivo, Echinochloa crus-galli", "settings": "80 g/ha", "procedure,_shortened": "as §2"}, "[17]": {"system": "AMARE", "assay": "Post-emergence herbicidal action against AMARE", "format": "in vivo, Amaranthus retroflexus", "settings": "20 g/ha, visual assessment about 3 weeks after treatment, 100% = plants have died, 0% = like control plants", "procedure,_shortened": "as §1"}, "[18]": {"system": "MATIN", "assay": "Post-emergence herbicidal action against MATIN", "format": "in vivo, Matricaria inodora", "procedure,_shortened": "as §1"}, "[19]": {"system": "PHBPU", "assay": "Post-emergence herbicidal action against PHBPU", "format": "in vivo, Pharbitis purpurea", "settings": "dosage 20 g/ha", "procedure,_shortened": "as §1"}, "[20]": {"system": "PHBPU", "assay": "Pre-emergence herbicidal action against PHBPU", "format": "in vivo, Pharbitis purpurea", "settings": "dosage 80 g/ha", "procedure,_shortened": "as §2"}, "[21]": {"system": "VERPE", "assay": "Pre-emergence herbicidal action against VERPE", "format": "in vivo, Veronica persica", "settings": "dosage 80 g/ha", "procedure,_shortened": "as §2"}, "[22]": {"settings": "Tripleurospermum inodorum, 504 h, dosage 20 g/ha"}, "[23]": {"settings": "80 g/ha, scored visually after 3 weeks vs untreated controls (100% = plants have died, 0% = like control plants)"}}, "data": [{"smiles": "CCn1nnnc1NC(=O)c1ccc(C(F)(F)F)c(C(=O)NC2CC2)c1SC", "note": "[Example 2-83]", "values": [{"measurement": "pest or weed control at 20 g/ha", "setting": "[1]; Avena fatua, 504 h", "value": 90, "unit": "%"}, {"measurement": "pest or weed control at 80 g/ha", "setting": "[2]; Abutilon theophrasti, 504 h, 80 g/ha, scored visually after 3 weeks vs untreated controls (100% = plants have died, 0% = like control plants)", "value": 100, "unit": "%"}, {"measurement": "pest or weed control at 20 g/ha", "setting": "[2]; Abutilon theophrasti, 504 h, dosage 20 g/ha, scored visually after 3 weeks vs untreated controls, 100% = plants have died, 0% = like control plants, read-out: Pre-emergence action against ABUTH (herbicidal activity in percent)", "value": 100, "unit": "%"}, {"measurement": "pest or weed control at 20 g/ha", "setting": "[3]; Echinochloa crus-galli, 504 h, dosage 20 g/ha", "value": 90, "unit": "%"}, {"measurement": "pest or weed control at 20 g/ha", "setting": "[4]; Setaria viridis, 504 h, dosage 20 g/ha", "value": 100, "unit": "%"}, {"measurement": "pest or weed control at 80 g/ha", "setting": "[5]; Viola tricolor, 504 h, dosage 80 g/ha", "value": 100, "unit": "%"}, {"measurement": "pest or weed control at 80 g/ha", "setting": "[6]; Alopecurus myosuroides, 504 h, 80 g/ha, scored visually after 3 weeks vs untreated controls (100% = plants have died, 0% = like control plants)", "value": 90, "unit": "%"}, {"measurement": "pest or weed control at 20 g/ha", "setting": "[6]; Alopecurus myosuroides, 504 h, 20 g/ha, scored visually after 3 weeks, 100% = plants have died, 0% = like control plants", "value": 90, "unit": "%"}, {"measurement": "pest or weed control at 80 g/ha", "setting": "[7]", "value": 90, "unit": "%"}, {"measurement": "pest or weed control at 20 g/ha", "setting": "[8]; Amaranthus retroflexus, 504 h, 20 g/ha, scored visually after 3 weeks vs untreated controls, 100% = plants have died, 0% = like control plants", "value": 100, "unit": "%"}, {"measurement": "pest or weed control at 80 g/ha", "setting": "[8]; Amaranthus retroflexus, 504 h, 80 g/ha, scored visually after 3 weeks vs untreated controls, 100% = plants have died, 0% = like control plants", "value": 100, "unit": "%"}, {"measurement": "pest or weed control at 20 g/ha", "setting": "[9]; Veronica persica, 504 h", "value": 80, "unit": "%"}, {"measurement": "pest or weed control at 5 g/ha", "setting": "[10]; Viola tricolor, 504 h, 5 g/ha", "value": 80, "unit": "%"}, {"measurement": "pest or weed control at 20 g/ha", "setting": "[10]; Viola tricolor, 504 h, 20 g/ha", "value": 80, "unit": "%"}, {"measurement": "pest or weed control at 80 g/ha", "setting": "[11]; Avena fatua, 504 h, 80 g/ha, pre-emergence", "value": 90, "unit": "%"}, {"measurement": "pest or weed control at 5 g/ha", "setting": "[12]; Abutilon theophrasti, 504 h, dosage 5 g/ha", "value": 90, "unit": "%"}, {"measurement": "pest or weed control at 20 g/ha", "setting": "[12]; Abutilon theophrasti, 504 h, dosage 20 g/ha", "value": 90, "unit": "%"}, {"measurement": "pest or weed control at 20 g/ha", "setting": "[13]; [22]", "value": 100, "unit": "%"}, {"measurement": "pest or weed control at 80 g/ha", "setting": "[13]; Tripleurospermum inodorum, 504 h, dosage 80 g/ha", "value": 100, "unit": "%"}, {"measurement": "pest or weed control at 80 g/ha", "setting": "[14]; Setaria viridis, 504 h, dosage 80 g/ha", "value": 100, "unit": "%"}, {"measurement": "pest or weed control at 20 g/ha", "setting": "[15]; Alopecurus myosuroides, 504 h", "value": 100, "unit": "%"}, {"measurement": "pest or weed control at 80 g/ha", "setting": "[16]; Echinochloa crus-galli, 504 h", "value": 90, "unit": "%"}, {"measurement": "pest or weed control at 20 g/ha", "setting": "[17]; Amaranthus retroflexus, 504 h", "value": 100, "unit": "%"}, {"measurement": "pest or weed control at 5 g/ha", "setting": "[18]; Tripleurospermum inodorum, 504 h, dosage 5 g/ha", "value": 80, "unit": "%"}, {"measurement": "pest or weed control at 20 g/ha", "setting": "[18]; [22]", "value": 100, "unit": "%"}, {"measurement": "pest or weed control at 20 g/ha", "setting": "[19]; Ipomoea purpurea, 504 h", "value": 80, "unit": "%"}]}, {"smiles": "CCn1nnnc1NC(=O)c1ccc(C(F)F)c(C(=O)NCC(F)F)c1SC", "note": "[Example 2-92]", "values": [{"measurement": "Post-emergence action at 20 g/ha against AVEFA in %", "setting": "[1]", "value": 80, "unit": "%"}, {"measurement": "Pre-emergence action against ABUTH (herbicidal activity)", "setting": "[2]; [23]", "value": 100, "unit": "%"}, {"measurement": "Pre-emergence action against ABUTH (herbicidal activity in percent)", "setting": "[2]; dosage 20 g/ha, scored visually after 3 weeks vs untreated controls, 100% = plants have died, 0% = like control plants", "value": 100, "unit": "%"}, {"measurement": "Post-emergence action against ECHCG in %", "setting": "[3]; dosage 5 g/ha", "value": 80, "unit": "%"}, {"measurement": "Post-emergence action against ECHCG in %", "setting": "[3]; dosage 20 g/ha", "value": 100, "unit": "%"}, {"measurement": "Post-emergence action against SETVI in %", "setting": "[4]; dosage 5 g/ha", "value": 80, "unit": "%"}, {"measurement": "Post-emergence action against SETVI in %", "setting": "[4]; dosage 20 g/ha", "value": 100, "unit": "%"}, {"measurement": "Pre-emergence action against VIOTR in %", "setting": "[5]; dosage 20 g/ha", "value": 90, "unit": "%"}, {"measurement": "Pre-emergence action against VIOTR in %", "setting": "[5]; dosage 80 g/ha", "value": 100, "unit": "%"}, {"measurement": "Pre-emergence action against ALOMY (herbicidal activity)", "setting": "[6]; [23]", "value": 90, "unit": "%"}, {"measurement": "Pre-emergence action against PHBPU in %", "setting": "[20]", "value": 90, "unit": "%"}, {"measurement": "Pre-emergence action against AMARE in %", "setting": "[8]; 20 g/ha, scored visually after 3 weeks vs untreated controls, 100% = plants have died, 0% = like control plants", "value": 100, "unit": "%"}, {"measurement": "Pre-emergence action against AMARE in %", "setting": "[8]; [23]", "value": 100, "unit": "%"}, {"measurement": "Post-emergence action against VERPE in %", "setting": "[9]", "value": 90, "unit": "%"}, {"measurement": "Post-emergence action against VIOTR in %", "setting": "[10]; 5 g/ha", "value": 100, "unit": "%"}, {"measurement": "Post-emergence action against VIOTR in %", "setting": "[10]; 20 g/ha", "value": 100, "unit": "%"}, {"measurement": "Pre-emergence action against AVEFA", "setting": "[11]; 20 g/ha, scored visually after 3 weeks, 100% = plants have died, 0% = like control plants", "value": 80, "unit": "%"}, {"measurement": "Pre-emergence action against AVEFA in %", "setting": "[11]; 80 g/ha, pre-emergence", "value": 80, "unit": "%"}, {"measurement": "Post-emergence action against ABUTH in %", "setting": "[12]; dosage 5 g/ha", "value": 80, "unit": "%"}, {"measurement": "Post-emergence action against ABUTH in %", "setting": "[12]; dosage 20 g/ha", "value": 90, "unit": "%"}, {"measurement": "Pre-emergence action against MATIN in %", "setting": "[13]; dosage 20 g/ha", "value": 100, "unit": "%"}, {"measurement": "Pre-emergence action against MATIN in %", "setting": "[13]; dosage 80 g/ha", "value": 100, "unit": "%"}, {"measurement": "Pre-emergence action against VERPE in %", "setting": "[21]", "value": 100, "unit": "%"}, {"measurement": "Pre-emergence action against SETVI in %", "setting": "[14]; dosage 20 g/ha", "value": 100, "unit": "%"}, {"measurement": "Pre-emergence action against SETVI in %", "setting": "[14]; dosage 80 g/ha", "value": 100, "unit": "%"}, {"measurement": "Post-emergence action against ALOMY in %", "setting": "[15]", "value": 80, "unit": "%"}, {"measurement": "Pre-emergence action against ECHCG in %", "setting": "[16]", "value": 100, "unit": "%"}, {"measurement": "Post-emergence action at 20 g/ha against AMARE in %", "setting": "[17]", "value": 100, "unit": "%"}, {"measurement": "Post-emergence action against MATIN in %", "setting": "[18]; dosage 20 g/ha", "value": 80, "unit": "%"}, {"measurement": "Post-emergence action against PHBPU in %", "setting": "[19]", "value": 90, "unit": "%"}]}]}
